Measurements taken from US20250332112A1, “IONIZABLE CATIONIC LIPIDS FOR LIPID NANOPARTICLES” (GENEVANT SCIENCES GMBH, priority 2022, published 2025).

Experiments:
Type in all cases: in vivo
[1] = system: luciferase activity in the liver; test: Luciferase activity in liver after intravenous luciferase mRNA LNP; settings: 0.5 mg/kg IV, 6 h post-IV administration, BALB/c mice (n = 4)
[2] = system: EGFP expression in the liver; test: Dose response of EGFP mRNA LNP, EGFP expression in liver; settings: 24 h, female BALB/c mice (n = 4)
Experimental: At 24 h post-dose, the novel lipid formulations reported dose-dependent increases in EGFP expression in the liver (Table 32).

[3] = system: human OTC expression in the liver; test: Dose response of human OTC mRNA LNP, OTC expression in liver (ELISA); settings: 24 h, male C57BL/6 mice (n = 4)
Experimental: LNP formulations encapsulating ornithine transcarbamylase mRNA were injected intravenously at the specified dose levels to male C57BL/6 mice (6-8 weeks old).
Liver homogenates were prepared with PBS, Halt protease inhibitor cocktail and FastPrep homogenization, standardized to 2 mg/mL protein with a BCA Protein Assay, and then analyzed by ELISA. Briefly, samples were diluted with PBS and plated on Nunc Maxisorp plates. A standard curve using human […] protein was prepared from the naïve animal controls (vehicle). After 2 h incubation the plates were washed, and the primary antibody was added. After 1 h incubation, the secondary antibody was added and incubated for another hour. After washing, TMB Substrate was added for color development and the reaction was stopped with 2 N sulfuric acid. The plate was read at 450/570 OD.
At 24 h post-dose, the novel lipid formulations reported dose-dependent increases in human OTC expression in the liver (Table 15).

CCCCC/C=C\CCCC(CCC/C=C\CCCCC)C(CCC/C=C\CCCCC)OC(=O)CCCCN(C)C (stereo not shown) [Compound 13-B43, reference compound]
Luc Activity ([1]; Table 8): 5.94E+07 pg/g liver
Luc Activity ([1]; Table 9): 7.29E+07 pg/g liver
Luc Activity ([1]; Table 10): 7.04E+07 pg/g liver
Luc Activity ([1]; Table 11): 6.86E+07 pg/g liver
Luc Activity ([1]; Table 12): 7.83E+07 pg/g liver
Luc Activity ([1]; Table 13): 7.60E+07 pg/g liver
Luc Activity ([1]; Table 14): 6.02E+07 pg/g liver
EGFP expression ([2]; 0.3 mg/kg IV): 3.65e+07 pg EGFP/g liver
EGFP expression ([2]; 1 mg/kg IV): 1.88e+08 pg EGFP/g liver
EGFP expression ([2]; 3 mg/kg IV): 4.4e+08 pg EGFP/g liver
Human OTC expression ([3]; 0.3 mg/kg IV): 908 ng hOTC/mg protein in liver
Human OTC expression ([3]; 1 mg/kg IV): 6651 ng hOTC/mg protein in liver
Human OTC expression ([3]; 3 mg/kg IV): 12413 ng hOTC/mg protein in liver
